Structures are written as SMILES.

In data set [1] the test system is Gingiva Fibroblasten. Nature of the data set: ATP determination with ATPLite-M assay (cell energy content). The data set is classed as cell-based. An excerpt: ATP (Adenosintriphosphat) ist die universelle Speicherform für chemische Energie in Zellen. Die ATP-Bestimmung erfolgt mit Hilfe des ATPLiteTM-M Assays (Packard). Das Testprinzip dieses Assays beruht darauf, dass die Luciferase von Photinus pyralis eine Reaktion katalysiert, bei der in Gegenwart von ATP D-Luciferin in Oxyluciferin umgewandelt wird. Bei dieser Reaktion wird grünes Licht emittiert, das mit einem Luminometer gemessen werden kann. Das emittierte Biolumineszenzlicht ist proportional zur Menge des vorhandenen ATP. Zur Bestimmung der ATP-Aktivität in Gingiva Fibroblasten werden diese in geeigneter Weise unter Erhalt ihrer spezifischen Eigenschaften vorkultiviert (DE10162814) und in eine 96well-Zellkulturschale überführt. Die Behandlung mit dem Substanzgemisch erfolgte über 24 Stunden gegen eine unbehandelte Kontrolle. Anschließend wurden die Zellen mit jeweils 50 µl/Kavität eines im Testkit enthaltenen Lysepuffer für 5 min auf einem Schüttler lysiert. Danach wurden die Zellen für weitere 5 min mit jeweils 50 µl/Kavität mit der mitgelieferten Substratlösung auf dem Schüttler inkubiert und anschließend das Reaktionsgemisch in eine schwarze Mikrotiterplatte überführt. Nach einer Inkubationszeit von 10 min in der Dunkelheit erfolgte die Messung. Tabelle 2: Einfluss von Tocopherylacetat auf den Zellenergieinhalt
On the technique in general: Cellular ATP, detected with luciferase, serves as a proxy for viable cell number.

Data set [2] has as its system Gingiva Fibroblasten. Nature of the data set: WST-1 vitality test (metabolic activity). In kind it is cell-based. As to conditions: for Vitalität [%] Mittelwert: 24 h incubation, untreated control = 100 %, mean of 6.
Excerpt: Als Maß für die Vitalität kann die metabolische Aktivität von Gingiva Fibroblasten nach Inkubation mit Tocopherylacetat gemessen werden. Das chromogene Tetrazoliumsalz WST-1 wird durch stoffwechselaktive Succinatdehydrogenasen lebender Zellen reduktiv aufgespalten, wobei ein wasserlösliches Formazansalz entsteht. Durch UV/VIS-spektroskopische Vermessung der Absorptionsintensität kann die Konzentration der intermediär gebildeten Formazansalze bestimmt werden, welche in Korrelation zur Aktivität der Succinatdehydrogenase steht.
(§1) Der WST-Vitalitätstest wurde in einer 96-Well Mikrotiterplatte in 6-fach Bestimmung durchgeführt. Dafür wurde pro Well eine definierte Zellzahl von Gingiva Fibroplasten in einem Volumen von 50 µl (microliter) ausgesät. Anschließend wurde Tocopherylacetat in absteigenden Konzentrationen dazugegeben. Nach 24 Stunden Inkubation wurden 10 µl des in Medium verdünnten Tetrazolium-Salzes WST-1 zu jedem Ansatz pipettiert. Es folgte eine dreistündige Inkubation bei 37°C und 5 % Kohlenstoffdioxid, bevor die Absorption bei einer Wellenlänge von 450 nm (Referenzwellenlänge 650 nm) in einem Spektrometer (ELISA-Reader) gemessen wurde. Die Werte der unbehandelten Kontrolle wurden gleich 100 % gesetzt und die Werte der behandelten Proben darauf bezogen.
Für jede Tocopherylacetat-Konzentration wurde eine 6-fach Bestimmung durchgeführt, aus den 6 Messwerten wurde jeweils der Mittelwert gebildet.
as §1, with “37 °C” for “37°C”
(Formazan colour is commonly taken as a measure of viable cells.)

Where [3] appears, read: low concentrations, Gingiva-Zellen, result in words.
[4] abbreviates: Fibroblast, 24 h, read-out: Vitalität [%] Mittelwert.

Consider `CC(=O)Oc1c(C)c(C)c2c(c1C)CCC(C)(CCCC(C)CCCC(C)CCCC(C)C)O2` (stereo not shown) [Tocopherylacetat], for which, in the data set on Gingiva Fibroblasten [1] (Fibroblast, Konz. 0,01 Gew.-%, 24 h treatment, versus untreated control (100,0), read-out: ATP-Gehalt [%] Mittelwert), the activity at 0.01 % came to 128%. For the same molecule, in the data set with Gingiva Fibroblasten [1] (Fibroblast, Konz. 0,0025 Gew.-%, 24 h treatment, versus untreated control (100,0), read-out: ATP-Gehalt [%] Mittelwert), the activity at 0.0025 % was determined as 125%. For the same molecule, the activity at 0.005 % with Gingiva Fibroblasten [1] (Fibroblast, Konz. 0,005 Gew.-%, 24 h treatment, versus untreated control (100,0), read-out: ATP-Gehalt [%] Mittelwert) worked out at 139%. For the same molecule, the ATP-Gehalt result with Gingiva Fibroblasten [1] (setting [3]) is listed as “signifikanten Steigerung des ATP-Gehaltes”. The viability at 0.0005 % in the data set with Gingiva Fibroblasten [2] (setting [4]) stood at 133%. Further, in the data set on Gingiva Fibroblasten [2] (setting [4]), the viability at 0.001 % was 141%. The viability at 0.005 % with Gingiva Fibroblasten [2] (setting [4]) worked out at 138%. Moreover, the viability at 0.01 % with Gingiva Fibroblasten [2] (setting [4]) is 150%. In addition, the “Vitalität [%] Mittelwert” value with Gingiva Fibroblasten [2] (Konz. 0,01 Gew.-%) is recorded as 150,5%; in the data set on Gingiva Fibroblasten [2] (Konz. 0,0005 Gew.-%) it was 132,9%; in the data set with Gingiva Fibroblasten [2] (Konz. 0,001 Gew.-%), 141,4%; with Gingiva Fibroblasten [2] (Konz. 0,005 Gew.-%), 137,7%. In the data set on Gingiva Fibroblasten [2] (setting [3]), the Vitalität result was “signifikanten Steigerung der Vitalität”.

The values above are taken from patent publication EP2727627B1, “Oral and dental care and cleaning agents with Tocopherol acetate” (priority 2012, dated 2014).
